Data on 2 compounds can be found in patent US20250282827A1, “LIPIDATED POLYMYXIN ANALOGUES” (priority 2021, published 2025).

≈ marks a conversion by molar mass, not a printed value. Like-named read-outs stand apart in the source and are kept apart here. Positions of bridges follow the written chain, without caps; N, C: chain ends. Non-standard residues stand in square brackets, D forms with d. Residues, ends and D or L forms follow the SMILES beside them. *: point of attachment. Ethyl(2-propionyloxy) = CCC(=O)OCC*; Ethyl(2-OPiv) = CC(C)(C)C(=O)OCC*; Dab = NCC[C@H](N)C(=O)O A value given as a limit tells only on which side of the number the result lay.

The term MIC denotes the least concentration at which growth counts as inhibited. High values mean a need for much substance, low ones inhibition by little substance.

For one test, the system named is P. aeruginosa ATCC 27853. Type of test: cell-based, Pseudomonas aeruginosa. The following applies: ATCC 27853. From the text: (§1) All 81 compounds prepared in Examples 2 and 3 underwent screening against a panel of Gram-negative bacterium to assess their ability to inhibit bacterial growth. […] The median value is presented.
Test [1] has as its system colistin-resistant E. coli. Type of test: cell-based, Escherichia coli. The following applies: colistin-resistant. From the text: (§2) Given the promising antimicrobial activity and low toxicity associated with compounds 29, 35 and to a lesser extent 38, these compounds were progressed to a further round of phenotypic antimicrobial susceptibility testing using a panel of clinically relevant multidrug resistant Gram-negative pathogens. This panel included isolates phenotypically characterised as carbapenem-resistant Enterobacteriacea (CRE), extended spectrum β-lactamase (ESBL) producing Enterobacteriacea, colistin-resistant E. coli, carbapenem-resistant Acinetobacter baumannii (CRAB) or carbapenem-resistant Pseudomonas aeruginosa (CRPA). These isolates were chosen because each was resistant to multiple different families of clinically used antibiotics making treatment options limited and importantly, each of these pathogen types are recognised as “Priority 1: CRITICAL” on the World Health Organization (WHO) priority pathogen list for R&D of new antibiotics. Antimicrobial activity against any of these pathogens would therefore be of clinical importance. […] However, we note that many of the compounds tested in Example 4 did show good activity against colistin-resistant E. coli.

In a further test the test system is E. coli ATCC 25922. The class given is cell-based, Escherichia coli. To be noted: ATCC 25922.
Source text: as §1

In a further test the test system is E. coli ATCC MS8345. The class given is cell-based, Escherichia coli. To be noted: ATCC MS8345.
Source text: as §1
Expansion of the polymyxin macrocycle by substituting […]) offered little advantage in antimicrobial activity but was generally well tolerated although for A. baumanni and P. aeruginosa this was detrimental.

The subject of test [2] is K. pneumoniae ATCC 700603. The class given is cell-based, Klebsiella pneumoniae. The following applies: ATCC 700603.
Source text: as §1

Test [3] concerns K. pneumoniae ATCC MS6671. The class given is cell-based, Klebsiella pneumoniae. The following applies: ATCC MS6671.
Source text: as §1

The next test has as its system K. pneumoniae ATCC 33495. The class given is cell-based, Klebsiella pneumoniae. The following applies: ATCC 33495.
Source text: as §1

The next test has as its system A. baumannii ATCC 19606. The class given is cell-based, Acinetobacter baumannii. The following applies: ATCC 19606.
Source text: as §1

For test [4], the system named is carbapenem-resistant Enterobacteriacea (CRE). Type of test: cell-based.
Source text: as §2

Test [5] relates to carbapenem-resistant Pseudomonas aeruginosa (CRPA). The class given is cell-based. To be noted: carbapenem-resistant (CRPA).
Source text: as §2

The subject of test [6] is carbapenem-resistant Acinetobacter baumannii (CRAB). The class given is cell-based. To be noted: carbapenem-resistant (CRAB).
Source text: as §2

With `CCC(=O)OCCSC[C@@H]1NC(=O)[C@@H](Cc2ccccc2)NC(=O)[C@H](CCN)NC(=O)[C@@H](NC(=O)[C@H](CCN)NC(=O)[C@@H](NC(=O)[C@H](CCN)NC(=O)[C@@H](N)CSCCOC(=O)CC)[C@@H](C)O)CCNC(=O)[C@H]([C@@H](C)O)NC(=O)[C@H](CCN)NC(=O)[C@H](CCN)NC1=O` [Compound 35] (H-C(Ethyl(2-propionyloxy))[Dab]T[Dab][Dab][Dab][dF]C(Ethyl(2-propionyloxy))[Dab][Dab]T; lactam 5-C), in the test with P. aeruginosa ATCC 27853, the “MIC P. aeruginosa ATCC 27853” value is more than 32 µg/mL. Besides, the MIC in test [1] was more than 32 µg/mL; in test [4] (E. cloacae, IMP-4), 2 µg/mL (≈ 1.47 µM); in test [4] (E. coli, NDM-1), 2 µg/mL (≈ 1.47 µM); in test [4] (K. pneumoniae, KPC-2), 4 µg/mL (≈ 2.95 µM); in test [4] (K. pneumoniae, NDM-5), 4 µg/mL (≈ 2.95 µM); in [5], more than 32 µg/mL. Moreover, the MIC in test [6] was 8 µg/mL (≈ 5.9 µM). Further, the “MIC E. coli ATCC 25922” value with E. coli ATCC 25922 worked out at 0.5 µg/mL (≈ 0.369 µM). For the same compound, the “MIC E. coli ATCC MS8345” value against E. coli ATCC MS8345 is more than 32 µg/mL. Besides, the “MIC K. pneumoniae ATCC 700603” value in [2] worked out at 1 µg/mL (≈ 0.737 µM). The “MIC K. pneumoniae ATCC MS6671” value in test [3] is more than 32 µg/mL. In the test on K. pneumoniae ATCC 33495, the “MIC K. pneumoniae ATCC 33495” value was in the range of 1 to 2 µg/mL. In the test with A. baumannii ATCC 19606, the “MIC A. baumannii ATCC 19606” value was 32 µg/mL (≈ 23.6 µM).
As to `C[C@@H](O)[C@@H]1NC(=O)[C@H](CCN)NC(=O)[C@H](CCN)NC(=O)[C@H](CSCCOC(=O)C(C)(C)C)NC(=O)[C@@H](Cc2ccccc2)NC(=O)[C@H](CCN)NC(=O)[C@@H](NC(=O)[C@H](CCN)NC(=O)[C@@H](NC(=O)[C@H](CCN)NC(=O)[C@@H](N)CSCCOC(=O)C(C)(C)C)[C@@H](C)O)CCNC1=O` [Compound 38] (H-C(Ethyl(2-OPiv))[Dab]T[Dab][Dab][Dab][dF]C(Ethyl(2-OPiv))[Dab][Dab]T; lactam 5-C), the “MIC P. aeruginosa ATCC 27853” value in the test with P. aeruginosa ATCC 27853 was 4 µg/mL (≈ 2.83 µM). Moreover, the MIC in test [1] is 16 µg/mL (≈ 11.3 µM); in test [4] (E. cloacae, IMP-4), 2 µg/mL (≈ 1.42 µM); in test [4] (E. coli, NDM-1) it was 2 µg/mL (≈ 1.42 µM); in [4] (K. pneumoniae, KPC-2), 2 µg/mL (≈ 1.42 µM); in test [4] (K. pneumoniae, NDM-5), 2 µg/mL (≈ 1.42 µM); in [5], more than 32 µg/mL. Besides, the MIC in [6] stood at 2 µg/mL (≈ 1.42 µM). In addition, the “MIC E. coli ATCC 25922” value against E. coli ATCC 25922 is 0.5 µg/mL (≈ 0.354 µM). In addition, the “MIC E. coli ATCC MS8345” value with E. coli ATCC MS8345 was 16 µg/mL (≈ 11.3 µM). Also, in test [2], the “MIC K. pneumoniae ATCC 700603” value turned out to be 0.5 µg/mL (≈ 0.354 µM). Moreover, the “MIC K. pneumoniae ATCC MS6671” value in test [3] was more than 32 µg/mL. The “MIC K. pneumoniae ATCC 33495” value against K. pneumoniae ATCC 33495 was 0.5 µg/mL (≈ 0.354 µM). Besides, the “MIC A. baumannii ATCC 19606” value in the test on A. baumannii ATCC 19606 turned out to be 2 µg/mL (≈ 1.42 µM).
